# From patent US9102636B2, “Analgesic compounds, compositions, and uses thereof” (Galleon Pharmaceuticals, Inc., priority 2010, dated 2015)
# Values joined by “and” are separate entries in the source; they are usually repeats but may differ in a detail not shown here. Identical values can stand only once. “Also recorded” adds a separate entry of the source.
# Columns and labels:
# [1] = L-012 assay: inhibition of SIN-1 generated peroxynitrite induced luminescence/fluorescence of L-012; type: biochemical; details: 15 minute time point; average of three plates
# Protocol: Luminol like compound “L-012” is a chemilumescent probe that is activated by the presence of a ROS and/or RNS such as peroxynitrite. In this assay L-012 was oxidized by the addition of 3-Morpholino-sydnonimine (“SIN-1”), a known peroxynitrite generator. The emitted fluorescence was directly proportional to the concentration of SIN-1. The compounds of the invention were then assessed for their ability to scavenge peroxynitrite by blocking the increase of peroxynitrite induced fluorescence. Concentrations of compound producing 50% inhibition of the fluorescence signal (IC50 values) were calculated by testing the compounds of the invention at various concentrations and averaging the IC50 of three plates.
# The following solutions were added to white polystyrene, non-sterile 96-well plate (Costar #3912): 196 μL of 50 μM L-012; 2 μL of the test compound; and 24 μL of 500 mM SIN-1. Fresh stock of 50 μM L-012 in PBS pH 7.4 was made for each 96 well plate that was analyzed. The plates were read in a FlexStation3 (Molecular Devices) using the luminescent mode at 37° C. for 30 min, with a measurement every 30 seconds and an integration time of 100 msec.
# Luminescence signal was recorded by the FlexStation3 kinetically at 37° C. for 30 minutes, with a measurement every 30 seconds and an integration time of 100 msec. The data in rows A and H were dropped from each plate to exclude the possibility of an ‘edge effect’. Thus, each test compound had 3 replicates per plate.
# [2] = system: ataxia (rotarod); assay: Accelerating rotarod assay of ataxia (latency to fall); type: in vivo, rat; details: for Latency to fall: Haloperidol 3 mg/kg p.o., maximum 300 seconds, individual animals
# Protocol: Compound 2 was evaluated in a rat accelerating rotarod model of ataxia. Ataxia is a common clinical problem with CNS-active compounds and can often confound interpretation of efficacy in preclinical pain models. The rotarod assay of ataxia has been widely used to assess the side-effect liability of novel pharmacological treatments (Jones & Roberts, 1968, J. Pharm. […] The positive control was haloperidol (Sigma, St. […] Male Sprague-Dawley Rats (Harlan, Ill.) were 250-300 g at time of dosing. Rotarod was obtained from IITC, CA. To examine the potential effects of Compound 2 on motor performance, rats were tested on an accelerating rotarod (IITC, Ca). […] Rats received two timed training trials (averaged to give the reported baseline) on the first day, then 24 hr later rats were administered Compound 2 (30, 100 and 300 mg/kg, p.o.), haloperidol (3 mg/kg, p.o.), the positive control, or vehicle. […] Statistical significance was determined on untransformed data using a two-way analysis of variance (Graphpad Prism, NC). Significant main effects were analyzed further by subsequent Bonferronni post-hoc test. The level of significance was set at p<0.05. Data are shown as mean±S.E.M. (with an asterisk to denote significance as compared to vehicle treated controls).
# [3] = system: FCA induced tactile allodynia; assay: FCA induced tactile allodynia (electronic von Frey); type: in vivo, rat
# Protocol: (§1) Compound 2 was evaluated in the rat Freund's complete adjuvant (FCA) model of inflammatory pain. The rat Freund's complete adjuvant (FCA) intraplantar model of inflammatory pain produces behaviors similar to those observed in patients and has been widely used to assess novel pharmacological treatments (Lam et al., 2008, J Ethnopharmacol. 120:44-50). The positive control was celecoxib (TRC, Montreal), and the negative control was vehicle (0.5% methyl cellulose, in phosphate buffered saline). […] The Hargreaves apparatus was obtained from Ugo Basile, Italy. The Freund's complete adjuvant was obtained from Sigma, St. Louis, and the electronic von frey was obtained from Stoelting, Ill. For this assay, paw withdrawal latency to a thermal stimulus was assessed using a radiant heat source (Ugo Basile, Italy) aimed at the plantar surface of the left hind paw (Hargreaves test; […] Paw withdrawal thresholds to a non-noxious tactile stimulus was assessed using an electronic von Frey apparatus that presented an increasing mechanical force to the plantar surface of the hind paw. Paw volume was measured by displacement of water and assuming a tissue density equal to that of water. […] Celecoxib (30 mg/kg p.o.) served as the positive control. […] After induction of anesthesia, the injection site was prepared in a sterile manner and 100 μl of a 50% suspension of FCA injected. After injection, animals were weighed and allowed to recover before being returned to their home cages. Statistical significance was determined on untransformed data using a two-way analysis of variance (Graphpad Prism, NC). Significant main effects were analyzed further by subsequent Bonferronni post-hoc test. The level of significance was set at p<0.05. Data are shown as mean±S.E.M. (with an asterisk to denote significance as compared to vehicle treated controls).
# [4] = system: FCA induced edema; assay: FCA induced edema (paw volume); type: in vivo, rat
# Protocol: as §1
# [5] = system: spinal nerve ligation induced tactile allodynia; assay: Spinal nerve ligation (SNL, Chung model) induced tactile allodynia (von Frey filaments); type: in vivo, rat; details: for Paw withdrawal threshold: FIG. 24, fasted; for Paw withdrawal threshold / Paw threshold: individual animals; for Paw threshold: FIG. 25, gabapentin (positive control, 100 mg/kg i.p.)
compound,measurement,setting,value
"COC(=O)[C@@H]1N=C(Nc2cc(Cl)ccc2O)SC1(C)C [Compound 20, (S)-2-(2-Hydroxy-5-chlorophenylamino)-thiazoline-5,5-dimethyl-4-carboxylic acid methyl ester]",IC50,[1],550 nM
"O=C(CCCN1CCC(O)(c2ccc(Cl)cc2)CC1)c1ccc(F)cc1 [haloperidol, reference compound]",Latency to fall,[2]; Baseline,60 s and 38 s and 42.5 s and 59 s and 68 s and 48 s and 86 s and 62 s and 71 s and 80 s and 57 s
same,Latency to fall,[2]; Post-Drug (1 hr),9 sec and 10 sec (2×) and 7 sec and 2 sec (2×) and 5 sec (2×) and 6 sec and 30 sec and 15 sec
same,"latency to fall, accelerating rotarod, positive control","[2]; rat, haloperidol 3 mg/kg p.o., 1 h post-administration",significant motor deficits; also recorded: substantial reduction in latency
"CC1(C)SC(Nc2ccccc2O)=N[C@H]1C(=O)O [Compound 1, (S)-2-(2-hydroxyphenylamino)-thiazoline-5,5-dimethyl-4-carboxylic acid]",IC50,[1],270 nM
"COC(=O)[C@@H]1N=C(Nc2ccc(OC)cc2O)SC1(C)C [Compound 27, (S)-2-(2-Hydroxy-4-methoxyphenylamino)-thiazoline-5,5-dimethyl-4-carboxylic acid methyl ester]",IC50,[1],300 nM
"Cc1ccc(-c2cc(C(F)(F)F)nn2-c2ccc(S(N)(=O)=O)cc2)cc1 [celecoxib, reference compound]",Paw withdrawl threshold,"[3]; 60 (min post-dose), celecoxib 30 mg/kg p.o. 24 hours post-FCA",29.9 g and 32.4 g and 19.8 g and 23.2 g and 30.9 g
same,Paw withdrawl threshold,"[3]; baseline (pre-FCA), celecoxib 30 mg/kg group, individual rats",31.8 g (2×) and 39.4 g and 25.93 g and 36.6 g and 37.73 g
same,Paw volume,"[4]; 24 hrs post, Celecoxib (30 mg/kg p.o.), FIG. 20A",2.8 mL and 3.1 mL and 2.7 mL and 3 mL and 2.2 mL
same,Paw volume,"[4]; 48 hrs post, Celecoxib (30 mg/kg p.o.), FIG. 20A",2.7 mL and 2.8 mL and 2.2 mL
same,Paw volume,"[4]; FCA/celecoxib, 30 mg/kg p.o., 1 hr (D2), individual animals, 30 mg/kg",2.3 mL (2×) and 2.6 mL and 2.4 mL (2×) and 2.7 mL (2×) and 2.5 mL
same,Paw volume,"[4]; FCA/celecoxib, 30 mg/kg p.o., 1 hr, individual animals, 30 mg/kg",2.7 mL (3×) and 2.9 mL and 2.6 mL and 3.1 mL and 3 mL (2×)
same,Paw volume,"[4]; FCA/celecoxib, 30 mg/kg p.o., 3 hrs (D2), individual animals, 30 mg/kg",2.4 mL and 2.5 mL (2×) and 2.3 mL (2×) and 2.7 mL and 2.6 mL and 2.8 mL
same,Paw volume,"[4]; FCA/celecoxib, 30 mg/kg p.o., 3 hrs, individual animals, 30 mg/kg",2.7 mL (3×) and 2.9 mL (2×) and 2.8 mL and 3.1 mL and 2.6 mL
same,Paw volume,"[4]; FCA/celecoxib, 30 mg/kg p.o., Pre-Drug (D2), individual animals, 30 mg/kg",2.4 mL and 2.6 mL (2×) and 2.3 mL (2×) and 2.5 mL and 2.7 mL and 2.8 mL
same,Paw volume,"[4]; FCA/celecoxib, 30 mg/kg p.o., Pre-Drug, individual animals, 30 mg/kg",2.8 mL (3×) and 3.1 mL (2×) and 2.9 mL and 3 mL and 3.2 mL
same,Paw volume,"[4]; FCA/celecoxib, 30 mg/kg p.o., Pre-FCA (baseline), individual animals, 30 mg/kg",1.7 mL (6×) and 1.8 mL and 1.9 mL
same,Paw volume,"[4]; Pre-FCA, Celecoxib (30 mg/kg p.o.) group, individual rats, FIG. 20A",1.8 mL and 1.9 mL (2×) and 1.7 mL (2×) and 1.5 mL
"COc1ccc(NC2=N[C@@H](C(=O)O)C(C)(C)S2)c(O)c1 [Compound 26, (S)-2-(2-Hydroxy-4-methoxyphenylamino)-thiazoline-5,5-dimethyl-4-carboxylic acid]",IC50,[1],140 nM
"Cc1ccc(O)c(NC2=N[C@@H](C(=O)O)C(C)(C)S2)c1 [Compound 24, (S)-2-(2-Hydroxy-5-methylphenylamino)-thiazoline-5,5-dimethyl-4-carboxylic acid]",IC50,[1],540 nM
"NCC1(CC(=O)O)CCCCC1 [gabapentin, reference compound]",Paw withdrawal threshold,"[5]; gabapentin 100 mg/kg i.p., 3 hrs (D1)",15 g (4×) and 5.18 g and 3.67 g and 6.58 g and 5.56 g
same,Paw withdrawal threshold,"[5]; gabapentin 100 mg/kg i.p., 3 hrs (D3)",15 g (3×) and 3.33 g and 11.69 g and 8.61 g and 6.58 g and 9.86 g
same,Paw withdrawal threshold,"[5]; gabapentin 100 mg/kg i.p., 5 hrs (D1)",10.31 g and 5.56 g and 6.58 g (2×) and 1.99 g and 6.66 g and 7.94 g and 6.4 g
same,Paw withdrawal threshold,"[5]; gabapentin 100 mg/kg i.p., 5 hrs (D3)",15 g (2×) and 4.4 g and 4.72 g and 2.37 g and 6.58 g and 7.31 g and 6.66 g
same,Paw withdrawal threshold,"[5]; gabapentin 100 mg/kg i.p., Pre-Drug (D1)",6.64 g and 1.65 g and 1.33 g and 1.56 g and 2.81 g (2×) and 4.23 g and 5.04 g
same,Paw withdrawal threshold,"[5]; gabapentin 100 mg/kg i.p., Pre-Drug (D3)",6.64 g and 1.56 g and 1.4 g and 1.65 g and 5.57 g and 3.55 g and 3.58 g and 2.81 g
same,Paw withdrawal threshold,"[5]; gabapentin 100 mg/kg i.p., Pre-Sx",15 g
same,Paw threshold,"[5]; 1 wk, 100 mg/kg",1.56 g (2×) and 6.58 g (2×) and 3.73 g and 2.2 g and 4.25 g and 1.4 g
same,Paw threshold,"[5]; 2 wks, 100 mg/kg",0.99 g and 1.31 g and 3.13 g and 1.4 g (2×) and 2.81 g (3×)
same,Paw threshold,[5]; Pre-Sx,15 g
same,"reversal of SNL tactile allodynia, positive control","[5]; rat, gabapentin 100 mg/kg i.p., 3 and 5 hours after each administration",consistently produced a statistically significant reversal of allodynia; also recorded: statistically significant reversal of hyperalgesia
same,"development of SNL tactile allodynia, positive control dosed only on day of surgery","[5]; rat, gabapentin, FIG. 25",failed to alter the course of development of allodynia
"CC1(C)SC(Nc2cc(Cl)ccc2O)=N[C@H]1C(=O)O [Compound 21, (S)-2-(2-Hydroxy-5-chlorophenylamino)-thiazoline-5,5-dimethyl-4-carboxylic acid]",IC50,[1],260 nM
